Experimental findings from patent US7786129B2, “Piperazine derivatives of dialkyl oxindoles” (Egis Gyogyszergyar Nyrt, priority 2004, dated 2010) are described below.

One data set concerns Male Wistar rats. As to the kind of experiment: Vogel's drinking conflict test. Type of data set: in vivo. Particulars: ip, 0.5 h, rat, i.p. 30 min prior to test, increase in tolerated shocks, read-out: MED. As for the experimental part:
The anxiolytic effect of the compounds according to the invention was investigated on rats according to Vogel's drinking conflict test and elevated plus-maze test (S. Pelow, P. Chopin, S. E. File, J. Briley: Neurosci. Methods 14, p. 149 (1985)).
Male Wistar rats weighing 160-180 g were used for the experiment. The animals were deprived of drinking water for 48 hours and fasted for 24 hours prior to test. The test compounds or vehicle were administered intraperitoneally, 30 min prior to test. […] Following every 20 licks electric shocks (0.7 mA) were applied through the drinking spout during the 5 min test period. The number of punished licks were recorded. The effect of the test compounds was expressed as % increase in numbers of tolerated shocks. Minimal effective doses (MED) were determined for each compound.

In data set [1] the test system is dopamine release in the internal ear of guinea pig. Kind of data set: Dopamine release in the internal ear (cochlear preparations, oxygen and glucose deprivation). Particulars: guinea pig cochlear preparation, second stimulation after oxygen and glucose deprivation, FIG. 1. As for the experimental part:
The study of the effect on the hearing impairment and tinnitus were performed in guinea pigs weighing 145-375 g (Toxicoop, Hungary) according to the method of Gáboiján et al. (Gáboiján, A., Lendvai, B, Vizi, E. S.: Neuroscience 90, p. 131 (1999)). The dopamine release in the internal ear, as a correlate of hearing impairment, was measured in samples from cochlear preparations (lateral olivocochlear efferents) with high-pressure liquid chromatography (HPLC). The samples were collected in every 3 minutes during 60 minutes (20 fractions). Electric field stimulation was generally applied during the 3rd and 13th fraction (S1, S2, 2 Hz, 360 shocks, 60 V; Grass Medical Instruments). In the respective experiments ischemia (oxygen and glucose deprivation, OGD) was mimicked by the perfusion of a buffer saturated with 100% N2 and containing sacharose instead of glucose. Results are expressed as a percent of dopamine release per fraction. Statistical analysis was performed by analysis of variance (ANOVA) followed by Tukey test.
From the thus-obtained results the effect of the compound of Example 76 on the dopamine release in the internal ear of guinea pig is shown (FIG. 1). The initial stimulation (SI) evoked considerable dopamine release. […] This effect can be interpreted as an inhibition of hearing impairment.

A further data set has as its system Male Mongolian gerbils. As to the kind of experiment: Neuroprotective effect in global ischemia test (bilateral carotid occlusion). Format: in vivo, Mongolian gerbil. The conditions noted are these: gerbil. As for the experimental part: Male Mongolian gerbils weighing 60-90 g were used as test animals. The test compounds were administered intraperitoneally at a dose of 30 mg/kg 45 min after surgery. Test substances were suspended in 0.4% methylcellulose solution. In diethylether narcosis, the right and left common carotid arteries were exposed through an anterior midline cervical incision and isolated from the vagus nerves and the surrounding tissues. Full arrest of carotid blood flow was achieved by tightening an aneurysm clip for 3 min. During surgery the body temperature of the animals was kept at the individual preoperative level (37.5±0.5° C.) with the help of a heating pad and a heating lamp.
4 days after the surgery the animals were anaesthetized with 60 mg/kg i.p nembutal (10 ml/kg) and perfused through the heart first with saline then with a fixative solution containing 0.1% glutaraldehyde, 4% paraformaldehyde and 0.2% picric acid in 0.1 M phosphate buffer (pH 7.4) for 30 min. The brain was removed from the skull and post fixed for at least 1 week at 4° C. in the same fixative solution.
Alternate coronal sections of 60 μm thickness were cut from different levels of the dorsal hippocampus by a microtome. The sections were repeatedly washed in 0.1 M phosphate buffer (pH 7.4) and stained by silver impregnation. The sections were stored twice in a preparatory solution (2% sodium hydroxide and 0.875% ammonium hydroxide solution) for 5 minutes, impregnated for 10 minutes in 0.875% ammonium hydroxide and 0.5% silver nitrate solution) and placed into a washing solution (0.5% sodium carbonate and 0.01% ammonium nitrate dissolved in a 29.1% aqueous ethanol solution) twice for 2 minutes and once for one minute. The slices were then developed in 9.9% ethanol solution containing 1.5% formaldehyde and 0.01% ammonium nitrate and fixed three times for 3 minutes in a 0.5% acetic acid solution. The stained slices were placed in 0.1M phosphate buffer (pH 7.4) and chrome gelatine, applied on plates, dehydrated and treated with xylol. The cover plates were fixed with DPX glue (Fluka).
The sections were examined under light microscopy and the overall neuronal damage in the hippocampal CA1 subfield in both hippocampi was scored on a 6-point scale: (O) undamaged, (1)—0-10%; (2)—10-30%; (3)—30-50%; (4)—50-70%; (5)—70-90%; (6)—90-100% cell loss. Group differences between drug-treated and vehicle-treated groups were statistically analysed by Mann-Whitney U-test.

Marks after values point to notes of the source that are not given here.

As for `CCC1(CCCCN2CCN(c3ccc(Cl)cc3)CC2)C(=O)Nc2ccccc21` (centres unmarked) [Example 76, 3-{4-[4-(4-Chlorophenyl)-piperazin-1-yl]-butyl}-3-ethyl-1,3-dihydro-2H-indol-2-one], the melting point fell in the range of 145 to 146 °C. In addition, in the data set with Male Wistar rats, the minimal effective dose was found to be 10 mg/kg. Also, the “dopamine release in the internal ear” value in data set [1] was “the release stabilized at a significantly higher level”. In addition, the “Effect (%)” value in the data set on Male Mongolian gerbils (change of CA1 cell loss score vs. control, 30 mg/kg i.p.) is listed as −52%. In the data set with Male Mongolian gerbils (30 mg/kg i.p. 45 min after surgery, scored 4 days after surgery on 6-point scale), the “CA1 cell loss (score)” value is on record as 2.40* score.

As usually defined, the melting point is the temperature, or range, at which the solid turns liquid.
